This is an account of results in US9751837B2, “Kinase inhibitors” (RESPIVERT LIMITED, priority 2014, dated 2017).

≈ marks a conversion by molar mass, not a printed value. Where two headings read alike, the source gives them in different places. Where only a bound is given, the exact number is not on record here.

One series concerns the target GSK 3α (Homo sapiens (Human), UniProt P49840). Kind of series: GSK 3α enzyme inhibition (Method 2), Z-LYTE FRET. It is filed as biochemical. As to conditions: read-out: IC50 Values for Enzyme Inhibition GSK3α. The procedure, abridged: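 Z-LYTE format: the protease cleaves only non-phosphorylated peptide, and the donor/acceptor (coumarin/fluorescein) ratio reports phosphorylation after a 1 hr kinase reaction with peptide (8 μM stock) and ATP (40 μM stock).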

The test system of a further series is Jurkat cells. Kind of series: Cell cytotoxicity assay (r). It is filed as cell-based, human. Conditions: 24 hours. The procedure, abridged: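 Viability read by flow cytometry as the fraction of propidium iodide-negative cells (7.5 μg/mL PI, 15 min), relative to 1.0% DMSO control. Beforehand, 1×10^5 Jurkat cells in RPMI/10% FBS were treated 24 h at 37° C., 5% CO2 with test compound at final 20, 5 or 1 μg/mL.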

Series [1] is described as follows: Solubility in fasted-state simulated colonic fluid (FaSSCoF) at pH 6.5. Conditions: 25 °C, pH 6.5, fassgf or other biorelevant, thermodynamic from solid. In kind it is physicochemical. The method, boiled down: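 Compounds were suspended at up to 2-10 mg/mL in pH 6.5 Tris/maleate FaSSCoF containing a five-bile-acid mixture, phosphatidylcholine, palmitic acid and BSA. After 24 h equilibration at 25° C the suspension was filtered and the filtrate quantified by HPLC peak area against a standard.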

A short description of series [2]: Pharmacokinetics and total colon distribution after single oral administration. It is filed as in vivo, male C57BL/6 mice. Conditions: male, C57BL/6, mouse, mice, Ex. 16 measured after oral 5 mg/kg of Ex. 19 (Na salt). The procedure:
Studies were conducted by Sai Life Sciences (Hinjewadi, Pune, India) to investigate the systemic pharmacokinetics and total colon tissue distribution of compounds of the invention. In particular, pharmacokinetic studies were carried out in male C57BL/6 mice following a single oral administration of the compound.

[3] abbreviates: pH 6.5 FaSSCoF Solubility (mg/mL) Run 1.
The mark [4] stands for this setting: pH 6.5 FaSSCoF Solubility (mg/mL) Run 2.
Where [5] appears, read: blood, read-out: Mean blood concentration.
Where [6] appears, read: total colon, read-out: total colon level.

The IC50 is the concentration that gives 50% inhibition. One may read the solubility (thermodynamic) as the concentration in solution at equilibrium with solid.

Chain of GSK 3α (P49840 whole entry): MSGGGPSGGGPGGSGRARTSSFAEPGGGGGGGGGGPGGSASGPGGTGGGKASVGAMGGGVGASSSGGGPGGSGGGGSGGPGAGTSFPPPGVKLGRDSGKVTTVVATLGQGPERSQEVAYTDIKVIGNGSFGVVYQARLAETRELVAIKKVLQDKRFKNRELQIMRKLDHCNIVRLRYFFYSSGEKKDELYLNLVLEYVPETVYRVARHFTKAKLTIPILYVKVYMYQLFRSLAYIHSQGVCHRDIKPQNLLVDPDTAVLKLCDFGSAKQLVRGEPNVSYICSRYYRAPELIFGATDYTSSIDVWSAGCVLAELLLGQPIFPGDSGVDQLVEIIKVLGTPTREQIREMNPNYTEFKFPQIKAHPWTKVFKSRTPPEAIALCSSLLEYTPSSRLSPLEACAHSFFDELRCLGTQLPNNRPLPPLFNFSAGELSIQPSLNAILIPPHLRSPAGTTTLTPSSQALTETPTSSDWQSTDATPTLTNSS

For `COCCN(C)CCNC(=O)c1ccc(Nc2cc(Oc3ccc(NC(=O)Nc4cc(C(C)(C)C)cc(NS(C)(=O)=O)c4OC)c4ccccc34)ccn2)cc1OC` [17(ad), 4-[[4-[[4-[[5-tert-butyl-3-(methanesulfonamido)-2-methoxy-phenyl]carbamoylamino]-1-naphthyl]oxy]-2-pyridyl]amino]-2-methoxy-N-[2-[2-methoxyethyl(methyl)amino]ethyl]-benzamide], the half-maximal inhibitory concentration (IC50) at GSK 3α is 3060 nM. Besides, the “% Viability at 5 μg/mL” value in the series on Jurkat cells (5 μg/mL) is given as 6.3%. The “% Viability at 20 μg/mL” value in the series on Jurkat cells turned out to be 0.4%.
As for `COc1cc(Nc2cc(Oc3ccc(NC(=O)Nc4cc(C(C)(C)C)cc(NS(C)(=O)=O)c4OC)c4ccccc34)ccn2)cc(OC)c1C(=O)NCCN1CCOCC1` [17(ae), 4-[[4-[[4-[[5-tert-butyl-3-(methanesulfonamido)-2-methoxy-phenyl]carbamoylamino]-1-naphthyl]oxy]-2-pyridyl]amino]-2,6-dimethoxy-N-(2-morpholinoethyl)benzamide], on GSK 3α, the IC50 is 3000 nM. For the same compound, the solubility (thermodynamic) at 24 h was 11 µg/mL (≈ 13.1 µM) in series [1] (setting [3]) and 12 µg/mL (≈ 14.3 µM) in series [1] (setting [4]).
The matching figures for `COc1cc(Nc2cc(Oc3ccc(NC(=O)Nc4cc(C(C)(C)C)cc(NS(C)(=O)=O)c4OC)c4ccccc34)ccn2)ccc1C(=O)N(C)CCCN1CCOCC1` [17(af), 4-[[4-[[4-[[5-tert-butyl-3-(methanesulfonamido)-2-methoxy-phenyl]carbamoylamino]-1-naphthyl]oxy]-2-pyridyl]amino]-2-methoxy-N-methyl-N-(3-morpholinopropyl)benzamide]: 680 nM, 10 µg/mL (≈ 11.9 µM) and 10 µg/mL (≈ 11.9 µM).
For `COc1cc(Nc2cc(Oc3ccc(NC(=O)Nc4cc(C(C)(C)C)cc(NS(C)(=O)=O)c4OC)c4ccccc34)ccn2)ccc1C(=O)NCC1CCN(C)CC1` [17(ak), 4-[[4-[[4-[[5-tert-butyl-3-(methanesulfonamido)-2-methoxy-phenyl]carbamoylamino]-1-naphthyl]oxy]-2-pyridyl]amino]-2-methoxy-N-[(1-methyl-4-piperidyl)methyl]benzamide], at GSK 3α, the IC50 amounted to 1820 nM. In addition, the “% Viability at 1 μg/mL” value in the series on Jurkat cells (1 μg/mL) worked out at 99.0%. Also, the “% Viability at 20 μg/mL” value in the series with Jurkat cells was determined as 0.4%.
As to `COc1cc(Nc2cc(Oc3ccc(NC(=O)Nc4cc(C(C)(C)C)cc(NS(C)(=O)=O)c4OC)c4ccccc34)ccn2)ccc1C(=O)NCCCN1CCOCC1` [17(b), 4-[[4-[[4-[[5-tert-butyl-3-(methanesulfonamido)-2-methoxy-phenyl]carbamoylamino]-1-naphthyl]oxy]-2-pyridyl]amino]-2-methoxy-N-(3-morpholinopropyl)benzamide], the IC50 at GSK 3α stood at 4490 nM. Also, the thermodynamic solubility at 24 h in series [1] (setting [3]) and in series [1] (setting [4]) was 15 µg/mL (≈ 18.2 µM) throughout.
With `COc1cc(Nc2cc(Oc3ccc(NC(=O)Nc4cc(C(C)(C)C)cc(NS(C)(=O)=O)c4OC)c4ccccc34)ccn2)ccc1C(=O)N[C@@H](C)CN1CCOCC1` [17(v), 4-[[4-[[4-[[5-tert-butyl-3-(methanesulfonamido)-2-methoxy-phenyl]carbamoylamino]-1-naphthyl]oxy]-2-pyridyl]amino]-2-methoxy-N-[(1S)-1-methyl-2-morpholino-ethyl]benzamide], the IC50 at GSK 3α was over 12100 nM. The solubility (thermodynamic) at 24 h in series [1] (setting [3]) and in series [1] (setting [4]) was 8 µg/mL (≈ 9.69 µM) throughout.
`COc1cc(Nc2cc(Oc3ccc(NC(=O)Nc4cc(C(C)(C)C)cc(NS(C)(=O)=O)c4OC)c4ccccc34)ccn2)ccc1C(=O)NCCOCCOCCC(=O)O` [17(x), 3-[2-[2-[[4-[[4-[[4-[[5-tert-butyl-3-(methanesulfonamido)-2-methoxyphenyl]carbamoyl-amino]-1-naphthyl]oxy]-2-pyridyl]amino]-2-methoxy-benzoyl]amino]ethoxy]ethoxy]propanoic acid]: the IC50 on GSK 3α turned out to be 412 nM. Also, the values for the thermodynamic solubility at 24 h in series [1] (setting [3]) and in series [1] (setting [4]) were 15 µg/mL (≈ 17.5 µM) and 9 µg/mL (≈ 10.5 µM), respectively.
In the case of `COc1cc(Nc2cc(Oc3ccc(NC(=O)Nc4cc(C(C)(C)C)cc(C(N)=O)c4OC)c4ccccc34)ccn2)ccc1C(=O)O` [Example 3, 4-((4-((4-(3-(5-(tert-Butyl)-3-carbamoyl-2-methoxyphenyl)ureido)naphthalen-1-yl)oxy)pyridin-2-yl)amino)-2-methoxybenzoic acid], the IC50 at GSK 3α was found to be 139 nM. Moreover, the thermodynamic solubility at 24 h in series [1] (setting [3]) and in series [1] (setting [4]) was 6 µg/mL (≈ 9.23 µM) throughout.
Take `COCCOCCOCCS(=O)(=O)c1ccc(Nc2cc(Oc3ccc(NC(=O)Nc4cc(C(C)(C)C)cc(NS(C)(=O)=O)c4OC)c4ccccc34)ccn2)cc1OC` [Example 12, 1-[5-tert-Butyl-3-(methanesulfonamido)-2-methoxy-phenyl]-3-[4-[[2-[3-methoxy-4-[2-[2-(2-methoxyethoxy)ethoxy]ethylsulfonyl]anilino]-4-pyridyl]oxy]-1-naphthyl]urea]: the IC50 at GSK 3α is 2140 nM.
The same measure, in the same setting: the result for `COc1cc(Nc2cc(Oc3ccc(NC(=O)Nc4cc(C(C)(C)C)cc(NS(C)(=O)=O)c4OC)c4ccccc34)ccn2)ccc1S(=O)(=O)N(C)CCCN1CCOCC1` [Example 13, 1-[5-tert-Butyl-3-(methanesulfonamido)-2-methoxy-phenyl]-3-[4-[[2-[3-methoxy-4-[methyl(3-morpholinopropyl)sulfamoyl]anilino]-4-pyridyl]oxy]-1-naphthyl]urea] reads 3630 nM.
Consider `COc1cc(Nc2cc(Oc3ccc(NC(=O)Nc4cc(C(C)(C)C)cc(NS(C)(=O)=O)c4OC)c4ccccc34)ccn2)ccc1C(=O)NCCOCCOCCO` [Example 16, 4-[[4-[[4-[[5-tert-Butyl-3-(methanesulfonamido)-2-methoxy-phenyl]carbamoylamino]-1-naphthyl]oxy]-2-pyridyl]amino]-N-[2-[2-(2-hydroxyethoxy)ethoxy]ethyl]-2-methoxy-benzamide], for which the IC50 on GSK 3α came out at 3730 nM. The compound further had a thermodynamic solubility at 24 h in series [1] (setting [3]) of 4 µg/mL (≈ 4.81 µM). Further, the thermodynamic solubility at 24 h in series [1] (setting [4]) is 4 µg/mL (≈ 4.81 µM). Also, in series [2] (setting [5]), the concentration at 0.5 h was 1.3 ng/mL, the concentration at 1 h was 1.4 ng/mL, the concentration at 2 h worked out at 0.6 ng/mL and the concentration at 4 h was found to be 0 ng/mL. In series [2] (setting [5]), the concentration at 6 h worked out at 0 ng/mL, the concentration at 8 h was found to be 0.2 ng/mL, the concentration at 12 h was 0 ng/mL and the concentration at 24 h turned out to be 0 ng/mL. For the same compound, in series [2] (setting [6]), the concentration at 0.5 h is 9.5 ng/g, the concentration at 1 h turned out to be 110 ng/g, the concentration at 2 h worked out at 2400 ng/g and the concentration at 4 h amounted to 3350 ng/g. Also, in series [2] (setting [6]), the concentration at 6 h amounted to 3320 ng/g, the concentration at 8 h came to 3420 ng/g, the concentration at 12 h was determined as 5090 ng/g and the concentration at 24 h is 0 ng/g.
Consider `COc1cc(Nc2cc(Oc3ccc(NC(=O)Nc4cc(C(C)(C)C)cc(NS(C)(=O)=O)c4OC)c4ccccc34)ccn2)cc(OC)c1C(=O)O` [Example 46, 4-[[4-[[4-[[5-tert-Butyl-3-(methanesulfonamido)-2-methoxyphenyl]carbamoylamino]-1-naphthyl]oxy]-2-pyridyl]amino]-2,6-dimethoxybenzoic acid], for which the IC50 at GSK 3α came out at 225 nM.
